The text below walks through data of ChEMBL document CHEMBL1133072, “Synthesis and biological activity of 1beta-methyl-2-[5'-isoxazoloethenylpyrrolidin-3'-ylthio]carbapenems” (2000).

The test system of assay [1] is Staphylococcus aureus. Briefly: Minimum inhibitory concentration against Staphylococcus aureus SG 511 was determined by agar dilution method using Mueller-Hinton. The assay is classed as functional. On the technique in general: Agar dilution tests growth on a series of plates holding different concentrations.
In the next assay the test system is Klebsiella aerogenes. Briefly: Minimum inhibitory concentration against Klebsiella aerogenes 1522E was determined by agar dilution method using Mueller-Hinton. The assay is classed as functional.
Assay [2] relates to Pseudomonas aeruginosa. Briefly: Minimum inhibitory concentration against Pseudomonas aeruginosa 1771M was determined by agar dilution method using Mueller-Hinton. The format is functional.
The subject of assay [3] is Staphylococcus aureus. Description: Minimum inhibitory concentration against Staphylococcus aureus 285 was determined by agar dilution method using Mueller-Hinton. The assay is classed as functional.
The subject of assay [4] is Escherichia coli. Description: Minimum inhibitory concentration against Escherichia coli 055 was determined by agar dilution method using Mueller-Hinton. The format is functional.
Another assay concerns Streptococcus pyogenes. Briefly: Minimum inhibitory concentration against Streptococcus pyogenes 308A was determined by agar dilution method using Mueller-Hinton. The assay is classed as functional.
In assay [5] the target is Dipeptidase 1 (Sus scrofa) (UniProt P22412). Description: Relative half life of hydrolysis to meropenem by partially purified porcine renal DHP-I was determined.
Dipeptidase 1 (Sus scrofa), sequence (P22412 whole entry, looked up): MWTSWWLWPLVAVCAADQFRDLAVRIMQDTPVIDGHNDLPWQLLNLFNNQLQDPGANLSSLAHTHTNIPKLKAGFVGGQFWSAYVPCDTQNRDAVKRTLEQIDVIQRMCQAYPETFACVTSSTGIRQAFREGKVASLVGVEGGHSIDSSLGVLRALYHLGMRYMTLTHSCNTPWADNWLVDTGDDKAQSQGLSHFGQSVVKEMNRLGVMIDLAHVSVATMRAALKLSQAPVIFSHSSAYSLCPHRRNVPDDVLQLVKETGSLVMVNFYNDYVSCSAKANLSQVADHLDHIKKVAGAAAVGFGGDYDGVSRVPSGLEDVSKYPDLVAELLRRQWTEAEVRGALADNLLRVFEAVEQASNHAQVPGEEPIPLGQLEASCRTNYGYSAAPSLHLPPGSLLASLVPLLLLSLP
In assay [6] the test system is Escherichia coli. Description: Minimum inhibitory concentration against Escherichia coli 1507E was determined by agar dilution method using Mueller-Hinton. The assay is classed as functional.
A further assay concerns Enterobacter cloacae. Briefly: Minimum inhibitory concentration against Enterobacter cloacae 1321E was determined by agar dilution method using Mueller-Hinton. The assay is classed as functional.
Assay [7] deals with Pseudomonas aeruginosa. Briefly: Minimum inhibitory concentration against Pseudomonas aeruginosa 1592E was determined by agar dilution method using Mueller-Hinton. The assay is classed as functional.
For assay [8], the system named is Staphylococcus aureus. Briefly: Minimum inhibitory concentration against Staphylococcus aureus 503 was determined by agar dilution method using Mueller-Hinton. The format is functional.
In assay [9] the test system is Pseudomonas aeruginosa. Description: Minimum inhibitory concentration against Pseudomonas aeruginosa 9027 was determined by agar dilution method using Mueller-Hinton. The assay is classed as functional.
The next assay has as its system Salmonella typhimurium. Description: Minimum inhibitory concentration against Salmonella Typhimurium was determined by agar dilution method using Mueller-Hinton. The assay is classed as functional, Salmonella enterica subsp. enterica serovar Typhimurium. The settings on record: Salmonella enterica.

What is called MIC is the smallest concentration in the dilution series that meets the test's criterion for growth inhibition.

The structures appear in SMILES notation. In brackets after ≈: the same amount, converted by molar mass.

Turning to `C[C@@H](O)[C@H]1C(=O)N2C(C(=O)O)=C(S[C@@H]3CN[C@H](/C=C/c4cc(Cl)no4)C3)[C@H](C)[C@H]12`, the MIC in the assay with Staphylococcus aureus [1] stood at 0.013 µg/mL (≈ 0.0296 µM); against Klebsiella aerogenes it was 0.025 µg/mL (≈ 0.0568 µM); against Pseudomonas aeruginosa [2], 0.195 µg/mL (≈ 0.443 µM); with Staphylococcus aureus [3], 0.025 µg/mL (≈ 0.0568 µM); in the assay on Escherichia coli [4] it was 0.025 µg/mL (≈ 0.0568 µM); with Streptococcus pyogenes, 0.004 µg/mL (≈ 0.00909 µM). The minimum inhibitory concentration (MIC) against Escherichia coli [6] was 0.025 µg/mL (≈ 0.0568 µM); with Enterobacter cloacae it was 0.013 µg/mL (≈ 0.0296 µM); in the assay with Pseudomonas aeruginosa [7], 0.781 µg/mL (≈ 1.78 µM); with Staphylococcus aureus [8], 0.013 µg/mL (≈ 0.0296 µM); against Pseudomonas aeruginosa [9], 0.781 µg/mL (≈ 1.78 µM); against Salmonella typhimurium, 0.025 µg/mL (≈ 0.0568 µM). The Relativity in assay [5] was 1.33.

As for `C[C@@H](O)[C@H]1C(=O)N2C(C(=O)O)=C(S[C@@H]3CN[C@H](/C=C\c4cnoc4)C3)[C@H](C)[C@H]12`, the MIC was 0.013 µg/mL (≈ 0.0321 µM) with Staphylococcus aureus [1]; 3.12 µg/mL (≈ 7.71 µM) in the assay on Klebsiella aerogenes; 3.12 µg/mL (≈ 7.71 µM) in the assay with Pseudomonas aeruginosa [2]; 0.025 µg/mL (≈ 0.0617 µM) in the assay with Staphylococcus aureus [3]; 0.391 µg/mL (≈ 0.964 µM) in the assay on Escherichia coli [4]; less than 0.002 µg/mL in the assay on Streptococcus pyogenes. Moreover, the MIC turned out to be 1.56 µg/mL (≈ 3.85 µM) against Escherichia coli [6]; 1.56 µg/mL (≈ 3.85 µM) in the assay on Enterobacter cloacae; 25 µg/mL (≈ 61.7 µM) against Pseudomonas aeruginosa [7]; 0.013 µg/mL (≈ 0.0321 µM) in the assay with Staphylococcus aureus [8]; 25 µg/mL (≈ 61.7 µM) against Pseudomonas aeruginosa [9]; 0.391 µg/mL (≈ 0.964 µM) with Salmonella typhimurium. For the same compound, in assay [5], the Relativity was 1.84.

In the case of `COc1cc(/C=C/[C@@H]2C[C@H](SC3=C(C(=O)O)N4C(=O)[C@H]([C@@H](C)O)[C@H]4[C@H]3C)CN2)on1`, the MIC with Staphylococcus aureus [1] amounted to 0.049 µg/mL (≈ 0.113 µM); with Klebsiella aerogenes it was 0.391 µg/mL (≈ 0.898 µM); in the assay on Pseudomonas aeruginosa [2] it was 6.25 µg/mL (≈ 14.4 µM); against Staphylococcus aureus [3], 0.025 µg/mL (≈ 0.0574 µM); against Escherichia coli [4], 0.098 µg/mL (≈ 0.225 µM); in the assay on Streptococcus pyogenes, 0.007 µg/mL (≈ 0.0161 µM). Besides, the minimal inhibitory concentration (MIC) with Escherichia coli [6] came out at 0.391 µg/mL (≈ 0.898 µM); against Enterobacter cloacae, 0.195 µg/mL (≈ 0.448 µM); against Pseudomonas aeruginosa [7] it was 12.5 µg/mL (≈ 28.7 µM); with Staphylococcus aureus [8], 0.049 µg/mL (≈ 0.113 µM); against Pseudomonas aeruginosa [9] it was 12.5 µg/mL (≈ 28.7 µM); in the assay on Salmonella typhimurium, 0.195 µg/mL (≈ 0.448 µM). Also, in [5], the Relativity is 2.14.

For `C[C@@H](O)[C@H]1C(=O)N2C(C(=O)O)=C(S[C@@H]3CN[C@H](/C=C/c4ccon4)C3)[C@H](C)[C@H]12`, the minimum inhibitory concentration (MIC) in the assay on Staphylococcus aureus [1] is 0.195 µg/mL (≈ 0.481 µM); with Klebsiella aerogenes, 0.098 µg/mL (≈ 0.242 µM); against Pseudomonas aeruginosa [2] it was 0.781 µg/mL (≈ 1.93 µM); against Staphylococcus aureus [3], 0.195 µg/mL (≈ 0.481 µM); with Escherichia coli [4] it was 0.098 µg/mL (≈ 0.242 µM); with Streptococcus pyogenes, 0.025 µg/mL (≈ 0.0617 µM). Besides, the MIC in the assay with Escherichia coli [6] came out at 0.098 µg/mL (≈ 0.242 µM); against Enterobacter cloacae, 0.049 µg/mL (≈ 0.121 µM); against Pseudomonas aeruginosa [7] it was 3.12 µg/mL (≈ 7.71 µM); in the assay with Staphylococcus aureus [8], 0.098 µg/mL (≈ 0.242 µM); in the assay with Pseudomonas aeruginosa [9], 3.12 µg/mL (≈ 7.71 µM); against Salmonella typhimurium, 0.098 µg/mL (≈ 0.242 µM). For the same compound, the Relativity in [5] came to 2.33.

With `C[C@@H](O)[C@H]1C(=O)N2C(C(=O)O)=C(SCCNC=N)C[C@H]12` [IMIPENEM ANHYDROUS], the minimal inhibitory concentration (MIC) against Staphylococcus aureus [1] amounted to 0.025 µg/mL (≈ 0.0835 µM); in the assay on Klebsiella aerogenes it was 0.391 µg/mL (≈ 1.31 µM); with Pseudomonas aeruginosa [2], 0.195 µg/mL (≈ 0.651 µM); with Staphylococcus aureus [3] it was 0.025 µg/mL (≈ 0.0835 µM); in the assay on Escherichia coli [4], 0.098 µg/mL (≈ 0.327 µM); against Streptococcus pyogenes it was 0.007 µg/mL (≈ 0.0234 µM). The MIC was found to be 0.195 µg/mL (≈ 0.651 µM) against Escherichia coli [6]; 0.195 µg/mL (≈ 0.651 µM) with Enterobacter cloacae; 1.56 µg/mL (≈ 5.22 µM) against Pseudomonas aeruginosa [7]; 0.013 µg/mL (≈ 0.0434 µM) in the assay with Staphylococcus aureus [8]; 0.781 µg/mL (≈ 2.61 µM) against Pseudomonas aeruginosa [9]; 0.781 µg/mL (≈ 2.61 µM) with Salmonella typhimurium. Further, the Relativity in [5] amounted to 0.19.
